Source: patent US3993754A (priority 1974, dated 1976)
Where two headings read alike, the source gives them in different places. *1 amine or outer side, *2 acyl side, *3 side chain or, on linkers, in order; H or OH if unused. Where a SMILES comes first, the peptide text is derived from it. Bridges are numbered along the chain shown (N, C = ends). Roman numbers before positions name the chains, in order. [ ]: non-standard residue; d: D form. Actinocin(9to1) = Cc1c2oc3c(C)ccc(C(=O)[*:1])c3nc-2c(C(=O)[*:2])c(N)c1=O; NMeV = CN[C@H](C(=O)O)C(C)C; Sar = CNCC(=O)O

What was measured:
[1] = mice
Procedure: Female CF No. 1 (Carworth Farms) mice, 3 months of age, weighing between 27 and 29 grams, were used in each instance in these experiments. For toxicity studies, groups of 15 or 20 mice were given actinomycin D at different levels, either in the nonencapsulated or in the liposome-encapsulated forms. Toxicity of actinomycin D was tested by both intravenous and intraperitoneal injection. Experiments were carried out to test the therapeutic efficacy of the encapsulated actinomycin D against Ehrlich ascites (E. A.) tumor cells in vivo. In Experiment I, mice recieved 20 × 10^6 E.A. cells by intraperitoneal injection. After 5 days, separate groups were treated with one of the following: (1) 0.4 ml of 8 mM calcium chloride, (2) nonencapsulated actinomycin D (0.75 mg/kg), or (3) liposome-encapsulated actinomycin D (0.75 mg/kg). In Experiment II, two groups of 10 mice were similarly inoculated. Treatment of one group was begun after 3 days with 0.5 mg/kg of encapsulated actinomycin D, followed by injection on 4 consecutive days with 0.25 mg/kg. All injections were given intraperitoneally, in a volume of 0.4 ml in Experiment I, 0.2 ml in Experiment II.

[2] = tested on: Ehrlich ascites (E. A.) tumor cells; test: Therapeutic efficacy against Ehrlich ascites tumor cells in vivo (survival time); design: species or system mice; settings: Experiment I: single i.p. treatment 0.75 mg/kg, 5 days after inoculation of 20 × 10^6 E.A. cells; control 7.4 ± 3.11 days
Procedure: Referring to FIG. 1, there is illustrated the therapeutic effect of liposome-encapsulated actinomycin D on the survival of mice bearing E.A. tumor following single treatments given at 5 days after inoculation of 20 × 10^6 E.A. cells. A control is represented by line 11 on the graph, liposome-encapsulated actinomycin D at 0.75 mg/kg represented by line 12 and nonencapsulated actinomycin D at 0.75 mg/kg represented by line 13.
Referring to FIG. 2, there is shown graphically the therapeutic effect of liposome-encapsulated actinomycin D on the survival of mice bearing E.A. tumor with multiple daily treatments starting at day 3 after inoculation with 20 × 10^6 E.A. cells. In FIG. 2, the control is represented by line 14, liposome-encapsulated actinomycin D, first dose 0.50 mg/kg followed by four consecutive injections of 0.25 mg/kg, is represented by line 15. As is readily apparent from the graph, the increase in survival time after mutliple injections of encapsulated actinomycin D was even more impressive: 7.3 ± 2.26 days for the control versus 17.6 ± 2.17 days for the encapsulated actinomycin D. All of the control animals died before the first death occurred in the treatment group. In a separate experiment, it was observed that injection of liposomes prepared with KCl instead of actinomycin D had no effect on survival time.

[3] = tested on: E.A. cells; test: Light and electron microscopic examination of E.A. tumor cells after treatment; format: in vivo, mouse; settings: 1 mg/kg (2 mg/kg in the first case), 1 hour to 5 days after treatment
Procedure: Electron microscopic studies of tissue cells were also conducted. For the electron microscopic studies, a mouse was inoculated with E.A. cells in the manner described above. Five days after the inoculation, liposomes containing actinomycin D at a concentration of 2 mg/kg were injected intraperitoneally. At intervals of 1, 6, 12 and 24 hours after the liposome injection, 0.2 ml of ascites fluid was aspirated from the mouse abdominal cavity with a syringe. The fluid was centrifuged and the pellet of E.A. cells was fixed and processed for examination in an electron microscope. […] Light and electron microscopic examination of E.A. tumor cells was also carried out 1 hour to 5 days after treatment with liposome-encapsulated and nonencapsulated actinomycin D at a dose of 1 mg/kg. […] There was an increase in lipid droplets, lyosomes and autophagic vacuoles and the ribosomes were clumped into distinct clusters. Fewer dividing cells were seen, at least after 24 hours post-treatment.

Cc1c2oc3c(C)ccc(C(=O)N[C@@H]4C(=O)N[C@H](C(C)C)C(=O)N5CCC[C@H]5C(=O)N(C)CC(=O)N(C)[C@@H](C(C)C)C(=O)O[C@@H]4C)c3nc-2c(C(=O)N[C@@H]2C(=O)N[C@H](C(C)C)C(=O)N3CCC[C@H]3C(=O)N(C)CC(=O)N(C)[C@@H](C(C)C)C(=O)O[C@@H]2C)c(N)c1=O [actinomycin D] (I: T[dV]P[Sar][NMeV] / II: T[dV]P[Sar][NMeV]; ester I:1-I:C, II:1-II:C; linker I:N-II:N via Actinocin(9to1))
LD50 ([1]; given intravenously): 0.43 ± 0.04 mg/kg
LD50 ([1]; intraperitoneal injection): 0.59 ± 0.17 mg/kg
survival of some of the decedents ([1]; intraperitoneal injection): ≤ 14 days
average survival time of the decedents ([1]; intravenous, 0.3 mg/kg): 3.5 days
decedents out of 20 injected ([1]; intravenous, 0.3 mg/kg): 8
time within which most of the deaths occurred ([1]; intravenous, doses of 0.5 mg/kg and above): ≤ 24 h
survival time after treatment [2]: slightly, but not significantly, less than the controls
morphological damage of E.A. cells [3]: Significantly fewer E. A. cells were damaged
